Measured values taken from article PMC5190053, “Blocking the PAH2 domain of Sin3A inhibits tumorigenesis and confers retinoid sensitivity in triple negative breast cancer” (Oncotarget, 2016).

Molecular target: T1, mSin3A PAH2 domain; SIN3A PAH2; Sin3A
T1 construct: PAH2 (paired amphipathic helix 2) domain only
Experiment: fluorescence anisotropy competition assay
Type: binding, Mus musculus
Conditions: conditions cited to earlier work

Ki: 23.6 µM
Structure (SMILES): O=C(O)c1cccc2c1NC(c1cccc(Cl)c1Cl)C1CC=CC21 (stereo not shown) [C16, 4-(2,3-Dichlorophenyl)-3a,4,5,9b-tetrahydro-3H-cyclopenta[c]quinoline-6-carboxylic acid]
